Assay results from patent US12336986B2, “Treatment and prevention of ocular neurodegenerative disorder” (The Jackson Laboratory, priority 2015, dated 2025).

How the values were obtained:
zebrafish = details: two-photon-laser axotomy; cited from earlier work
sciatic nerve axons = details: blocking NAMPT; cited from earlier work
D2 mice = details: topical administration; cited from earlier work
[1] = system: ganglion cell layer cells (GCL cells); test: Whole retina explant culture (axotomy culture model), DAPI nuclei; assay type: cell-based, mouse
Description: Mice were euthanized, eyes enucleated and placed immediately into ice-cold HBSS. Retinas were dissected from the eyes in HBSS on ice, flat-mounted with the ganglion cell layer up on a cell culture insert (Millipore), and submerged in tissue culture media containing Neurobasal-A, 1% penicillin-streptomycin (10000 U/mL), 1% glutamine (100×), 1% N-2 (100×) and 1% B-27 (50×) (all ThermoFisher Scientific).
For drug treated retinas tissue culture media was made as above and supplemented with one of the following compounds (all Sigma unless otherwise): β-NAD, NAM (PanReac AppliChem), β-NMN. Retinas were incubated in 6-well plates at 37° C. and 4% CO2 for 5 days before being fixed in 4% PFA and stained with DAPI. (For untreated “Day 0” controls, retinas were dissected and placed straight into 4% PFA.) Retinas were imaged on a Zeiss AxioObserver.

PQQ tolerability in mice = assay type: in vivo, mouse
dorsal root ganglion = details: U.S. Pat. No. 7,776,326; cited from earlier work
[2] = survey of 6000 patients on high doses; cited from earlier work
[3] = axotomized retinas in culture, 5 days

SMILES: O=C(/C=C/c1cccnc1)NCCCCC1CCN(C(=O)c2ccccc2)CC1 [FK866]
- axon degeneration (zebrafish): potently delayed axon degeneration
- axon degeneration following axonal injury (sciatic nerve axons): potentially inhibits this axon degeneration

SMILES: CC(C)OC(=O)CCC/C=C\C[C@@H]1[C@@H](CC[C@@H](O)CCc2ccccc2)[C@H](O)C[C@@H]1O [Latanoprost]
- IOP (D2 mice): lowers IOP
- risk of developing neurodegeneration (D2 mice): reduces the risk of developing neurodegeneration

SMILES: O=C(O)c1cc(C(=O)O)c2c(n1)C(=O)C(=O)c1cc(C(=O)O)[nH]c1-2 [PQQ, pyrroloquinoline quinone]
- nuclear diameter shrinkage (DAPI-labeled nuclei) ([1]; axotomized D2 retinas in culture, 5 days post-axotomy, NAM 100 mM and 500 mM): prevents
- ganglion cell layer cell death / cell density [1, 3]: prevents
- protective effect in retina tissue culture [1, 3]: protective in retina tissue culture
- tolerated dose (PQQ tolerability in mice): ≥ 2,000 mg/kg/day

SMILES: CC12CC3CC(C)(C1)CC(N)(C3)C2 [memantine]
- IOP (D2 mice): lowers IOP
- risk of developing neurodegeneration (D2 mice): reduces the risk of developing neurodegeneration

SMILES: O=C(O)c1cccnc1 [nicotinic acid]
- axonal degeneration after axotomy (dorsal root ganglion): did not work to diminish axonal degeneration
- cases of jaundice reported [2]: 3

SMILES: CC(C)(C)NC[C@H](O)COc1nsnc1N1CCOCC1 [timolol]
- IOP (D2 mice): lowers IOP
- risk of developing neurodegeneration (D2 mice): reduces the risk of developing neurodegeneration

SMILES: NC(=O)c1ccc[n+]([C@@H]2O[C@H](COP(=O)([O-])O)[C@@H](O)[C@H]2O)c1 [β-NMN, nicotinamide mononucleotide]
- protective effect in retina tissue culture [1, 3]: significant protective effects
